The source of these data is US20110003772A1, “USE OF SPHINGOLIPIDS IN THE TREATMENT OF TYPE 2 DIABETES MELLITUS, INSULIN RESISTANCE AND METABOLIC SYNDROME” (priority 2004, published 2011).

One experiment concerns 3T3-L1 adipocytes. Conditions: literature, Mei et al., 2002; cited from earlier work.
Another experiment has as its target T1, PPAR-α (Homo sapiens, UniProt Q07869).
T1 sequence (Q07869 1-468): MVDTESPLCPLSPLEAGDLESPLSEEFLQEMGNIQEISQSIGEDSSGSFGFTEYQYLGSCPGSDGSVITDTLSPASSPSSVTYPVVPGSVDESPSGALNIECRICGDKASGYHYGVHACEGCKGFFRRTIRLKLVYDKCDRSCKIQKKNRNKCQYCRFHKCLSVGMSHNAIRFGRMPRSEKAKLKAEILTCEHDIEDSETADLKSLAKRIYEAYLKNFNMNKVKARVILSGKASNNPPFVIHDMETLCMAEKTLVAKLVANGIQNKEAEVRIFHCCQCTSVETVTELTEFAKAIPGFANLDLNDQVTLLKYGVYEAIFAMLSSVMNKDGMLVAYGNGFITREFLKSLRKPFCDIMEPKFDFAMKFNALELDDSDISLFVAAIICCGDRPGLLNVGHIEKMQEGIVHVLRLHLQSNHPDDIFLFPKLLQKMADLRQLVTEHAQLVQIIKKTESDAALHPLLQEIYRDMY
The following applies: literature, Van Veldhoven et al., 2000; cited from earlier work.

Experiment [1] deals with female ob/ob mice. As to the kind of experiment: Hyperinsulinemic euglycemic clamp analysis in overnight fasted ob/ob mice. The experiment is classed as in vivo. Conditions: 1% PS diet; for Glucose (plasma) during clamp: overnight fasted. On the procedure: (§1) The “gold standard” for insulin resistance is a test called the hyperinsulinemic euglycemic clamp study. It is a complicated and expensive study in which insulin and glucose is infused intravenously at several different doses to see what levels of insulin control different levels of glucose. Essentially, the method of Koopmans et al., 2001 and Voshol et al., 2001.
(§2) All mice were fasted overnight and anaesthetised by intraperitoneal injection of Hypnorm® (fentanyl-fluanisone) (0.5 ml/kg body weight) and midazolam (12.5 mg/kg body weight). Mice were kept anaesthetised by administering 50 μl of Hypnorm®/midazolam subcutaneous every 45 minutes.
(§3) A needle filled with PBS was inserted into the tail vein and was connected to two pumps (Model 100 series, KdScienticic, PA, USA): one with an insulin solution consisting of 3057 μl PBS, 400 μl citrate (30 μg/μl) and 543 μl insulin (1 U/ml), and one pump with a solution of 6.25 g D-glucose in 50 ml PBS. Before the infusion with the two solutions was started, a capillary of blood was drawn from the tail tip. Subsequently a bolus of 30 μl of insulin was given and the pumps were started (50 μl/h). The mice were given rest for 30 minutes. Then every 10 minutes the glucose level was measured with a glucose handmeter (Freestyle, Disetronic Medical Systems AG, Burgdorf, Germany) and the glucose infusion rate was adjusted until the glucose concentration in the blood was constant for at least 20 minutes and a capillary of blood was drawn.
(§4) The insulin and glucose levels in the capillaries were measured using a standard commercial kit, according to the manufacturer's instructions (Hexokinase method, Instruchemie); and insulin levels were measured by Ultrasensitive mouse insulin ELISA, enzyme immunoassay according to the manufacturer's instructions (Mercodia, Sweden)
1.5 weeks after the last blood sample (necessary for full recovery of the mice) the ob/ob mice were fasted overnight and subjected to a hyperinsulinemic euglycemic clamp analysis. […]

Experiment [2] deals with female ob/ob mice. The experiment is described as follows: Plasma parameters and body weight in 4 h fasted ob/ob mice fed chow or chow with 1% phytosphingosine. It counts as in vivo. The following applies: for Body weight: mean ± SD of 10 mice; for Glucose (plasma) / Insulin (plasma): 4 h fasted, mean ± SD. The protocol: 20 female ob/ob mice (C57B1/6 background) were obtained from Charles River, The Netherlands and were acclimatized for a period of 2 weeks within the TNO-facilities. After a 4 hour fast, blood was drawn by tail bleeding and the animals were randomized according to body weight and plasma glucose levels. […] The mice were put on a regular chow diet (control) or regular chow supplemented with 1% phytosphingosine (1% PS). After three weeks of treatment a blood sample was drawn after a 4 hours fast and body weight was determined. […] The 1% PS treated mice maintained their initial body weight. […] We observed no differences in insulin levels between the groups.

Experiment [3] relates to insulin resistant mice (male ApoE3*Leiden mice). As to the kind of experiment: Hyperinsulinemic euglycemic clamp in insulin resistant mice on high fat, high fructose diet. The experiment is classed as in vivo. The following applies: 0.3% (w/w) in high fat, compared to control group.
Source text: as §1
Male ApoE3*Leiden mice were fed with a high fat, high fructose diet (24% casein, 17% corn starch, 14% cellulose, 1% cholesterol, 24% bovine lard, 20% fructose; all w/w). After 8 weeks all mice in this group were moderately insulin resistant and were strongly insulin resistant after 18 weeks. Two parallel groups of mice (n=8) were fed for another 10 weeks the same diet, but containing 0.3% (w/w of the dry food) of either egg sphingomyelin or phytosphingosine.
In another parallel experiment, three groups of 8 mice each were fed the same high fat, high fructose diet for 18 weeks. One group received 0.3% egg sphingomyelin during the whole period, one group received 0.3% phytosphingosine during the whole period and the last group served as the control group (i.e. received no additional sphingolipid).
as §2, §3, §4

Where [4] appears, read: T = 0 (starting point, before treatment), 1% PS group.
The mark [5] stands for this setting: T = 3 (3 weeks of chow with 1% PS).
The mark [6] stands for this setting: high fructose diet during the last 10 weeks of the 18 week experiment.
Setting [7] is: high fructose diet during whole 18 weeks.

Take `CCCCCCCCCCCCC/C=C/[C@@H](O)[C@H](CO)NC(C)=O` [C2-ceramide]: in the experiment with 3T3-L1 adipocytes, the “antilipolytic action of insulin” value was “decrease the antilipolytic action of insulin” and the lipolysis entry is recorded as “stimulate lipolysis”.
For `CCCCCCCCCCCCC/C=C/[C@@H](O)[C@H](CO)NC(C)=O` [N-acetyl-sphingenine], the “binding to the PPAR-α receptor” value at PPAR-α is “not able to bind”.
As for `CCCCCCCCCCCCC/C=C/[C@@H](O)[C@H](CO)NC(=O)CCCCCCCCCCCCCCC` [N-hexadecanoyl-sphingenine], the “binding to the PPAR-α receptor” value at PPAR-α was “not able to bind”.
Consider `CCCCCCCCCCCCCC[C@@H](O)[C@@H](O)[C@@H](N)CO` [phytosphingosine], for which, in the experiment with female ob/ob mice [1] (vs. 46±8 in control ob/ob mice, P=0.001), the “glucose infusion rate (GIR)” value is 4.5 ± 0.96 mL/h/kg. Besides, the “Glucose (plasma) during clamp” value in the experiment with female ob/ob mice [1] (Basal period (no insulin added)) turned out to be 7.3 ± 2.4 mmol/L; with female ob/ob mice [1] (Hyperinsulinemic period), 4.8 ± 1.3 mmol/L. The Body weight is given as 42.2 ± 4.6 g in the experiment with female ob/ob mice [2] (setting [4]) and 41.7 ± 3.7 g with female ob/ob mice [2] (setting [5]). The “Glucose (plasma)” value turned out to be 23.9 ± 5.1 mmol/L in the experiment on female ob/ob mice [2] (setting [4]) and 26.0 ± 7.0 mmol/L in the experiment on female ob/ob mice [2] (T = 3 (3 weeks of chow with 1% PS), P < 0.01 vs. control). Besides, the figures for the “Insulin (plasma)” value with female ob/ob mice [2] (setting [4]) and in the experiment on female ob/ob mice [2] (setting [5]) were 25.8 ± 14.1 ng/mL and 22.3 ± 6.8 ng/mL, respectively. For the same compound, the “infusion rate of glucose, percentage of the infusion rate in strongly insulin resistant control mice” value in experiment [3] (setting [6]) is listed as 114%; in experiment [3] (setting [7]) it was 102%.
With `CCCCCCCCCCCCCCC[C@@H](O)[C@@H](N)COP(=O)(O)O` [sphinganine-1-phosphate], the “binding to the PPAR-α receptor” value at PPAR-α is listed as “not able to bind”.
With `CCCCCCCCCCCCCCC[C@@H](O)[C@@H](N)CO` [sphinganine], the “binding to the PPAR-α receptor” value on PPAR-α was “strong binding ligands”.
`CCCCCCCCCCCCC/C=C/[C@@H](O)[C@@H](N)CO` [sphingenine]: the “binding to the PPAR-α receptor” value on PPAR-α is “strong binding ligands”.
As for ceramide, at PPAR-α, the “binding to the PPAR-α receptor” value is recorded as “not able to bind”.
phosphatidylcholine: the “binding to the PPAR-α receptor” value at PPAR-α was “not able to bind”.
With sphingomyelin, the “binding to the PPAR-α receptor” value at PPAR-α is “not able to bind”. Moreover, the “infusion rate of glucose, percentage of the infusion rate in strongly insulin resistant control mice” value in experiment [3] (setting [6]) came to 102%; in experiment [3] (setting [7]) it was 117%.
